This note sets out measurements from patent publication US20230293518A1 (Edgewise Therapeutics, Inc., priority 2020, published 2023).

In the first assay the target is skeletal myofibrils (myosin ATPase). In words: Skeletal Myofibril ATPase Assay. In kind it is biochemical. The conditions noted are these: Table 4A. The gist of the method:
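IC50 came from four-parameter logistic fits, bottom constrained ≥0, of (Max−Min) A340 values normalised to 1% DMSO controls. Readings were taken kinetically over 45 min at 1.5-2 min intervals, with ADP from myofibril myosin ATPase coupled through PK-LDH to NADH oxidation. Buffer was pCa (PIPES/CaCl2/EGTA), pH 7.0.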
The IC50 is the point on the concentration scale where inhibition reaches its midpoint. For the compound `CCNC(=O)Cn1nc(-c2ccc(N3CC(OC(F)F)C3)nc2)ccc1=O` [Compound I-55, 2-(3-(6-(3-(difluoromethoxy)azetidin-1-yl)pyridin-3-yl)-6-oxopyridazin-1(6H)-yl)-N-ethylacetamide], the IC50 lay within 10 to 100 µM.

The compound `O=C(Cn1nc(-c2ccc(OC(F)F)nc2)ccc1=O)NC12CC(C1)C2` [Compound I-11, N-(bicyclo[1.1.1]pentan-1-yl)-2-(3-(6-(difluoromethoxy)pyridin-3-yl)-6-oxopyridazin-1(6H)-yl)acetamide] displayed an IC50 of 10 to 100 µM.

Turning to `O=C(Cn1nc(-c2ccc(NC3CCC3)nc2)ccc1=O)NC1CCC1` [Compound I-52, N-cyclobutyl-2-(3-(6-(cyclobutylamino)pyridin-3-yl)-6-oxopyridazin-1(6H)-yl)acetamide], the IC50 is less than 10 µM.

The same assay, now with this note: Table 4B.
For `O=C(Cn1nc(-c2ccc(OCC(F)(F)F)cc2)ccc1=O)NCc1ccc(O)nc1` [II-20, N-((6-hydroxypyridin-3-yl)methyl)-2-(6-oxo-3-(4-(2,2,2-trifluoroethoxy)phenyl)pyridazin-1(6H)-yl)acetamide], the IC50 is greater than 100 µM.

Turning to `CC(C)(C)NC(=O)Cn1nc(-c2ccc(OC(F)F)cc2)ccc1=O` [II-16, N-(tert-butyl)-2-(3-(4-(difluoromethoxy)phenyl)-6-oxopyridazin-1(6H)-yl)acetamide], the concentration for half-maximal inhibition (IC50) was 10 to 100 µM.

`CC(=O)Nc1ccc(-c2ccc(=O)n(CC(=O)NC(C)C)n2)cc1` [II-14, 2-(3-(4-acetamidophenyl)-6-oxopyridazin-1(6H)-yl)-N-isopropylacetamide] yielded an IC50 of 10 to 100 µM.

In turn, `O=C(Cn1nc(-c2ccc(OCC(F)(F)F)cc2)ccc1=O)NCc1ccncc1Cl` [II-25, N-((3-chloropyridin-4-yl)methyl)-2-(6-oxo-3-(4-(2,2,2-trifluoroethoxy)phenyl)pyridazin-1(6H)-yl)acetamide] yielded an IC50 greater than 100 µM.

The assay is the same for the next values; noted with them: Table 4C.
Consider `COc1ccc(-c2ccc(=O)n(CC(=O)NCc3ccccc3C)n2)cc1` [IIIa-16, 2-(3-(4-methoxyphenyl)-6-oxopyridazin-1(6H)-yl)-N-(2-methylbenzyl) acetamide], for which the IC50 was less than 10 µM.

As to `COc1ccc(-c2ccc(=O)n(CC(=O)NCc3ccccc3)n2)cc1` [IIIb-20, N-benzyl-2-(3-(4-methoxyphenyl)-6-oxopyridazin-1(6H)-yl)acetamide], the IC50 lay within 10 to 100 µM.

`COc1ccc(-c2ccc(=O)n(CC(=O)NCc3ccccc3Cl)n2)c(C)c1` [IIIa-22, N-(2-chlorobenzyl)-2-(3-(4-methoxy-2-methylphenyl)-6-oxopyridazin-1(6H)-yl)acetamide] came in with an IC50 of 10 to 100 µM.

With `COc1ccc(-c2ccc(=O)n(CC(=O)NCc3ccccc3OC)n2)cc1` [IIIb-21], the IC50 was in the range of 10 to 100 µM.

Consider `COc1ccc(-c2ccc(=O)n(CC(=O)NCc3cccc(Cl)c3)n2)cc1` [IIIa-8, N-(3-chlorobenzyl)-2-(3-(4-methoxyphenyl)-6-oxopyridazin-1(6H)-yl)acetamide], for which the IC50 is less than 10 µM.

Compound `COc1ccc(-c2ccc(=O)n(CC(=O)NC3(c4ccccc4Cl)CC3)n2)cc1` [IIIa-20, N-(1-(2-chlorophenyl)cyclopropyl)-2-(3-(4-methoxyphenyl)-6-oxopyridazin-1(6H)-yl)acetamide] yielded an IC50 of 10 to 100 µM.

In turn, `COc1ccc(-c2ccc(=O)n(CC(=O)NC(C)C)n2)c(F)c1` [IIIb-19, 2-(3-(2-fluoro-4-methoxyphenyl)-6-oxopyridazin-1(6H)-yl)-N-isopropylacetamide] had an IC50 of 10 to 100 µM.

`COc1ccc(-c2ccc(=O)n(CC(=O)NCC3CCCCC3)n2)cc1` [IIIa-4, N-(cyclohexylmethyl)-2-(3-(4-methoxyphenyl)-6-oxopyridazin-1(6H)-yl)acetamide] displayed an IC50 of less than 10 µM.

Take `COc1ccc(-c2ccc(=O)n(CC(=O)Nc3cccc4[nH]ccc34)n2)c(F)c1` [IIIb-2, 2-(3-(2-fluoro-4-methoxyphenyl)-6-oxopyridazin-1(6H)-yl)-N-(1H-indol-4-yl)acetamide]: the IC50 is less than 10 µM.
